{
  "source": "patent US20020085997A1",
  "about": "“TUMOUR VACCINE AND PROCESS FOR THE PREPARATION THEREOF” (priority 1995, published 2002)",
  "key": {"CT-26 cells": {"test_system": "CT-26 cells", "test": "Protection of Balb/c mice by pre-immunisation with vaccine of foreign peptide-charged CT-26 colon carcinoma cells (prophylactic mouse model)", "format": "in vivo", "settings": "for animals protected: vaccinated twice s.c. 10^5 cells/mouse"}, "[1]": {"test_system": "highly tumorigenic variant of the M-3 cells", "format": "in vivo, mice", "settings": "cells charged with peptide by means of TfpL/DNA complexes"}, "M-3 cells": {"test_system": "M-3 cells", "test": "Comparative FACS analysis of M-3 cells treated with FITC-labelled foreign peptide by various methods", "format": "cell-based, murine"}, "M-3 melanoma metastases": {"test_system": "M-3 melanoma metastases", "test": "Curing of DBA/2 mice having M-3 melanoma metastases with vaccine of foreign peptide-charged melanoma cells (therapeutic mouse model)", "format": "in vivo"}},
  "data": [
    {"sequence": "FFIGALEEI [Phe Phe Ile Gly Ala Leu Glu Glu Ile, synthetic peptide not hitherto found in nature, designed as ligand for MHC-I molecule of type H2-Kd]", "values": [
      {"measurement": "suitability of the peptide for producing an anti-tumour immunity", "setting": "CT-26 cells; murine colon carcinoma CT-26, Balb/c", "result": "confirmed"},
      {"measurement": "animals protected", "setting": "CT-26 cells", "result": "4 out of 8"}
    ]},
    {"sequence": "LPEAIEGFG [Leu Pro Glu Ala Ile Glu Gly Phe Gly, control peptide, anchor amino acids at positions 2 and 9 replaced by proline and glycine, reference compound]", "values": [
      {"measurement": "animals developed tumours", "setting": "[1]", "result": "7 out of 8"}
    ]},
    {"sequence": "LFEAIEGFI [Leu Phe Glu Ala Ile Glu Gly Phe Ile, viral peptide derived from the influenza virus haemagglutinin, H2-K^d-ligand, used as foreign peptide to charge tumour cells]", "values": [
      {"measurement": "peptide binding to cells after washing step", "setting": "M-3 cells; adjuvant mixing: 100 μg FITC-labelled peptide, 30 minutes ambient temperature, 10^6 M-3 cells", "result": "at most negligible"},
      {"measurement": "detection of cell-bound FITC peptide by fluorescent microscopy", "setting": "M-3 cells; pulsing, cytocentrifuged M-3 cells", "result": "practically undetectable"},
      {"measurement": "shift in fluorescence", "setting": "M-3 cells; pulsing: incubation with 450 μg FITC peptide, 3 hours 37° C., M-3 cells", "result": "one power of ten"},
      {"measurement": "shift in fluorescence compared with untreated cells or cells treated with polylysine alone", "setting": "M-3 cells; transloading: 160 μg FITC-labelled peptide with TfpL/pL/DNA complex, 3 hours 37° C., M-3 cells", "result": "~2 powers of ten"},
      {"measurement": "animals cured", "setting": "M-3 melanoma metastases; 160 μg peptide charged onto M-3 cells by TfpL/DNA complexes, 5 day metastasis, 10^5 irradiated cells/animal s.c. twice", "result": "7 out of 8"},
      {"measurement": "degree of systemic immune response of the tumour vaccine", "setting": "M-3 melanoma metastases; adjuvant mixing of the peptide with the irradiated vaccines", "result": "inefficient"},
      {"measurement": "animals cured", "setting": "M-3 melanoma metastases; complexes containing 0.5 μg of peptide, five-day metastasis", "result": "2 out of 8"},
      {"measurement": "mice cured", "setting": "M-3 melanoma metastases; complexes containing 5 μg of peptide, five-day metastasis", "result": "4 out of 8"},
      {"measurement": "mice cured", "setting": "M-3 melanoma metastases; complexes containing 50 μg of peptide, five-day metastasis", "result": "6 out of 8"},
      {"measurement": "mice able to eliminate the metastases", "setting": "M-3 melanoma metastases; mice with metastases vaccinated with xenopeptised irradiated M-3 cells (TfpL and empty vector)", "result": 87.5, "unit": "%"},
      {"measurement": "degree of systemic immune response of the tumour vaccine", "setting": "M-3 melanoma metastases; peptide administered to the cells by polylysine/transferrin, compared with incubation with peptide for 24 hours (pulsing)", "result": "significantly more marked"},
      {"measurement": "animals cured", "setting": "M-3 melanoma metastases; vaccine of cells treated with 4 mg peptide by incubation (pulsing, 3 hours 37° C.)", "result": "1 out of 8"},
      {"measurement": "animals remained free from tumours", "setting": "M-3 melanoma metastases; vaccine with 400 μg peptide applied by incubation (pulsing, 3 hours 37° C.)", "result": "3 out of the 8"},
      {"measurement": "vaccinated mice able to eliminate a tumour challenge", "setting": "CT-26 cells; irradiated CT-26 vaccine alienised with peptide complexed with TfpL or pL", "result": 75, "unit": "%"},
      {"measurement": "animals protected", "setting": "CT-26 cells", "result": "6 out of 8"}
    ]}
  ]
}
